Holding throughout (details): alone
For one assay, the system named is Phakopsora pachyrhizi. Put plainly: Phakopsora pachyrhizi (Soybean Rust) on leaf disks of treated soybean plants. In kind it is in vivo. The procedure:
Whole soybean plants are treated with the recited active ingredients 4 weeks after planting. 1 day after spraying leaf disks are cut from the first trifoliate leaf. Five repetitions at each rate are conducted. The leaf disks are inoculated with Phakopsora pachyrhizi (Asian soybean rust) one day after treatment. Evaluation of the leaf disks is conducted 11 to 14 days after inoculation and the activity is derived from the relation of the treated vs untreated, infested check. The rates of the active ingredients used are given in Table as g active ingredient (a.i.)/ha.

In assay [1] the test system is Glomerella lagenarium syn. Colletotrichum lagenarium. Put plainly: Glomerella lagenarium syn. Colletotrichum lagenarium (Anthracnose) liquid culture growth inhibition. Type of assay: cell-based. The procedure: Conidia of the fungus from cryogenic storage were directly mixed into nutrient broth (PDB potato dextrose broth). A DMSO solution of the test compounds was placed into a microtiter plate (96-well format) and the nutrient broth containing the fungal spores was added to it. The test plates were incubated at 24 C and the inhibition of growth was determined photometrically after 72 hrs at 620 nm.

Another assay concerns Septoria tritici. Put plainly: Septoria tritici (Leaf Blotch) liquid culture growth inhibition. In kind it is cell-based. The protocol:
(§1) Conidia of the fungus from cryogenic storage were directly mixed into nutrient broth (PDB potato dextrose broth). A DMSO solution of the test compounds was placed into a microtiter plate (96-well format) and the nutrient broth containing the fungal spores was added to it. The test plates were incubated at 24 C and the inhibition of growth was determined photometrically after 72 hrs.

Another assay deals with Septoria glycines. Put plainly: Septoria glycines (Brown Spot) liquid culture growth inhibition. In kind it is cell-based. The protocol: Conidia of the fungus from cryogenic storage were directly mixed into nutrient broth (PDB potato dextrose broth). A DMSO solution of the test compounds was placed into a microtiter plate (96-well format) and the nutrient broth containing the fungal spores was added to it. The test plates were incubated at 24 C and the inhibition of growth was determined visually after 72 hrs.

A further assay concerns Corynespora cassiicola. Put plainly: Corynespora cassiicola (Target Leaf Spot) liquid culture growth inhibition. Type of assay: cell-based. The protocol: Conidia of the fungus from cryogenic storage were directly mixed into nutrient broth (PDB potato dextrose broth). A DMSO solution of the test compounds was placed into a microtiter plate (96-well format) and the nutrient broth containing the fungal spores was added to it. The test plates were incubated at 24 C and the inhibition of growth was determined photometrically after 3-4 days at 620 nm.

A further assay relates to Botrytis cinerea. Put plainly: Botrytis cinerea (Gray Mould) liquid culture growth inhibition. In kind it is cell-based. The protocol:
as §1

For the next assay, the system named is Sclerotinia sclerotiorum. Put plainly: Sclerotinia sclerotiorum (White Mold) liquid culture growth inhibition. Type of assay: cell-based. The protocol: Mycelial fragments of the fungus prepared from a fresh liquid culture were directly mixed into nutrient broth (PDB potato dextrose broth). A DMSO solution of the test compounds was placed into a microtiter plate (96-well format) and the nutrient broth containing the fungal spores was added to it. The test plates were incubated at 24 C and the inhibition of growth was determined photometrically after 72 hrs at 620 nm

As to `CNC(=O)C(F)(F)c1ccc(-c2noc(C(F)(F)F)n2)cc1` [2,2-Difluoro-N-methyl-2-[4-[5-(trifluoromethyl)-1,2,4-oxadiazol-3-yl]phenyl]acetamide], the “Observed Activity” value came to 0% in the assay with Phakopsora pachyrhizi (0.3 g/ha), 4% with Phakopsora pachyrhizi (0.6 g/ha), 20% in assay [1] (0.08 ppm) and 20% in the assay with Septoria tritici (20 ppm).

As to `N#Cc1ccc(Oc2ccc(C(F)(F)C(O)(Cn3nc[nH]c3=S)c3ccc(F)cc3F)nc2)cc1` (stereo not shown) [4-[[6-[2-(2,4-Difluorophenyl)-1,1-difluoro-2-hydroxy-3-(5-thioxo-4H-1,2,4-triazol-1-yl)propyl]-3-pyridyl]oxy]benzonitrile], the “Observed Activity” value came out at 0% in the assay on Phakopsora pachyrhizi (30 g/ha); 10% in the assay with Phakopsora pachyrhizi (60 g/ha); 50% with Septoria glycines (1 ppm); 70% with Septoria glycines (2 ppm); 0% in the assay on Corynespora cassiicola (0.5 ppm); 0% with Corynespora cassiicola (1 ppm). Besides, the “Observed Activity” value in the assay on Corynespora cassiicola (2 ppm) is on record as 20%.

Take `CCC(=O)Oc1c(OC)ccnc1C(=O)N[C@@H](C)C(=O)O[C@@H](C)[C@@H](C)c1ccccc1C` [Compound A-1.2, [(1S,2S)-1-methyl-2-(o-tolyl)propyl] (2S)-2-[(4-methoxy-3-propanoyloxy-pyridine-2-carbonyl)amino]propanoate]: the “Observed Activity” value in the assay with Phakopsora pachyrhizi (0.3 g/ha) worked out at 18%; with Phakopsora pachyrhizi (0.6 g/ha) it was 55%; in assay [1] (0.02 ppm) it was 0%; in assay [1] (0.1 ppm), 0%; in assay [1] (0.2 ppm) it was 0%; in the assay with Botrytis cinerea (2 ppm) it was 70%. In addition, the “Observed Activity” value in the assay with Septoria glycines (0.03 ppm) is 20%; with Septoria glycines (0.06 ppm), 20%; in the assay on Septoria tritici (0.02 ppm), 20%; with Septoria tritici (0.03 ppm) it was 50%; in the assay with Septoria tritici (0.06 ppm), 70%; in the assay on Septoria tritici (0.1 ppm), 70%. The “Observed Activity” value is listed as 0% with Corynespora cassiicola (0.06 ppm); 0% with Sclerotinia sclerotiorum (0.02 ppm); 0% with Sclerotinia sclerotiorum (0.1 ppm); 0% in the assay with Sclerotinia sclerotiorum (0.2 ppm); 70% with Sclerotinia sclerotiorum (2 ppm).

`O=C(Nc1ccccc1F)c1ccc(-c2noc(C(F)(F)F)n2)cc1` [N-(2-fluorophenyl)-4-[5-(trifluoromethyl)-1,2,4-oxadiazol-3-yl]benzamide]: the “Observed Activity” value in the assay on Phakopsora pachyrhizi (0.3 g/ha) came to 0%; in the assay on Phakopsora pachyrhizi (0.6 g/ha), 35%; in assay [1] (2.22 ppm), 0%; in assay [1] (6.66 ppm), 0%; in assay [1] (20 ppm), 0%; in the assay on Septoria tritici (2.22 ppm), 0%. Moreover, the “Observed Activity” value in the assay with Septoria tritici (6.66 ppm) and in the assay with Septoria tritici (20 ppm) was 0% each time.

With `CNC(=S)c1ccc(-c2noc(C(F)(F)F)n2)cc1` [N-methyl-4-[5-(trifluoromethyl)-1,2,4-oxadiazol-3-yl]benzenecarbothioamide], the “Observed Activity” value in the assay on Phakopsora pachyrhizi (0.3 g/ha) turned out to be 6%; with Phakopsora pachyrhizi (0.6 g/ha), 74%; in assay [1] (0.08 ppm) it was 70%; with Botrytis cinerea (2.22 ppm), 0%; in the assay on Botrytis cinerea (6.66 ppm), 20%; with Botrytis cinerea (20 ppm), 70%. Also, the “Observed Activity” value in the assay on Septoria tritici (2.22 ppm) amounted to 0%; in the assay on Septoria tritici (6.66 ppm), 70%; in the assay on Septoria tritici (20 ppm), 90%; in the assay with Sclerotinia sclerotiorum (20 ppm) it was 20%.

For `CCN(C)C=Nc1cc(C)c(Oc2ccccc2)cc1Cl` [N′-(2-chloro-5-methyl-4-phenoxy-phenyl)-N-ethyl-N-methyl-formamidine], the “Observed Activity” value was 71% in the assay on Phakopsora pachyrhizi (1.5 g/ha), 71% in the assay on Phakopsora pachyrhizi (3 g/ha), 70% with Septoria glycines (0.625 ppm) and 20% in the assay on Septoria tritici (0.625 ppm).

Consider `CCN(C)C=Nc1cc(C)c(Oc2ccccc2F)cc1Cl` [N′-[2-chloro-4-(2-fluorophenoxy)-5-methyl-phenyl]-N-ethyl-N-methyl-formamidine], for which the results for the “Observed Activity” value with Phakopsora pachyrhizi (1.5 g/ha) and in the assay with Phakopsora pachyrhizi (3 g/ha) were 46% and 80%, respectively.

(Values after US20240008487A1, “FUNGICIDAL COMPOSITIONS” (SYNGENTA CROP PROTECTION AG, priority 2020, published 2024).)
